# Laboratory results taken from patent US10799456B2, “Multiple drug lipid nanoparticle composition and related methods for extended drug levels in blood and lymph tissue” (priority 2015, dated 2020).
# Assays:
# [1] = % Drug association to particles by assembly method; format: physicochemical
# Text: Select one or two drugs hydrophilic and water soluble (Class 2) drugs listed in Table 19 (for example, tenofovir and/or emtricitabine and/or lamivudine). • 3. Select the excipient combination (for example, 9 parts DSPC and 1 part PEG-DSPE). • 4. Prepare a single-phase miscible solvent that enables full solubilization of the chosen water-insoluble Class 1 drugs and water soluble Class 2 drugs plus the excipients from step 3. Examples include CHCl3:Methanol:Water (65:35:4); CHCl3:Ethanol:Water (65:35:4); CHCl3:Propanol:Water (65:35:4); and CHCl3:Hexanol:Water (65:35:4). • 5. The components in Steps 1, 2 and 3 are solubilized with the miscible solvent in step 4. • 6. The drugs (steps 1 and 2) as well as excipients (step 3) and the miscible solvent (step 4) are dried under reduced pressure with assistance of a combination of heat, reduced pressure and/or aerosolization to provide for uniformity and efficiency of drying. • 7. The dehydrated composition is heated above gel-to-liquid phase transition temperature of the excipient mixture (e.g., 50° C.). • 8. A buffered saline solution is prepared and the temperature is equilibrated to the same temperature as dehydrated composition. • 9. The buffered saline solution and dehydrated composition are gradually combined and maintained at the defined (e.g., 50° C.) for 3 hr. • 10. The resulting hydrated multi-drug lipid nanoparticles are size-reduced by sheering or forcing through small orifice or pressurized filter apparatus while maintaining at the defined temperature (in liquid phase of lipidic excipients).
# [2] = Drug incorporation/encapsulation (association) efficiency of multi-drug LNPs by dialysis; format: physicochemical
# Method: The anti-HIV LNP formulations contain both unbound drug and drugs bound to lipid nanoparticles. […] Drugs were quantified by LC-MS/MS using acetonitrile precipitation. Encapsulation efficiency (EE) was calculated as follows: […]
# [3] = cited from earlier work
# [4] = cited from earlier work; for Hydrophobicity (Log P): Tables 20 and 21; for LogP: Tables 18 and 19
# [5] = Plasma time course of ATV/RTV/TFV lipid nanoparticles in primates; format: in vivo, Macaca nemestrina; details: male, Macaca nemestrina, in vivo, sc
# Method: All animal procedures were performed under an approved protocol reviewed by the University of Washington Institutional Animal Care and Use Committee. […] ATV, RTV, and TFV in the plasma were extracted in duplicate and analyzed with a liquid chromatography-mass spectrometry assay with a validated reverse phase HPLC/MS/MS method, similar to that of lopinavir (LPV), RTV, and TFV. […] Antimicrobial agents and chemotherapy. 2014. The linear trapezoidal method was used to calculate the area under the plasma drug concentration-time curve (AUC) for ATV, RTV, and TFV during the time course, which was close to 168 h post-dosing. […] All drugs in buffer and plasma were analyzed using a validated HPLC/MS/MS analytical method, capable of analyzing […], and TFV. The one-step analysis for LPV, RTV, and TFV was published previously. […] Antimicrobial agents and chemotherapy. 2014. Briefly, the HPLC system was outfitted with a Shimadzu 20AD HPLC (Shimadzu Scientific Instruments, Inc., Pleasanton, Calif.). […] Multiple reaction monitoring (MRM) was used to detect transition ions from a specific precursor ion to product ion. The analytes were detected using the following m/z transitions: 705.5/168.2 for ATV, 548.3/392.3 for DRV, 721.3/296.1 for RTV, 288.1/176 for TFV, and 238.1/193.2 for cyheptamide.
# [6] = Particle size by photon correlation spectroscopy; format: physicochemical
# Method: The mean particle size of lipid-drug nanoparticles and liposome control was determined by photon correlation spectroscopy (PCS) using a NICOMP™ 380ZLS instrument (NICOMP Particle Sizing Systems, Santa Barbara, Calif.). […] Samples were diluted with the same buffer to an identical final volume to analyze concentration effects. The light scattering data were analyzed based on intensity-weight NICOMP size distribution and expressed as a mean±SD.
# Briefly, lipids and protease inhibitors were dissolved in chloroform:ethanol (3:1 v/v) and PMPA was added from a stock solution of 30 mg/ml in aqueous 150 mM NaHCO3. Solvent was removed by rotary evaporation and vacuum desiccation. The dry film was rehydrated to 200 mM lipid in 0.4% NaCl with 20 mM NaHCO3 buffer at 60° C. Particle size was reduced at 60° C. by bath sonication (laboratory scale) or high-pressure homogenization using an Emulsiflex-05 (Avestin, Ottawa, Canada) (clinical scale). LNPs were maintained at 60° C. to anneal for 30 min prior to cooling and stored at 4° C. Particle size was determined by photon correlation spectroscopy using a NICOMP 380 ZLS (Particle Sizing Systems, Santa Barbara, Calif.).
# [7] = Octanol-buffer distribution coefficient (shake-flask); format: physicochemical; details: room temperature
# Method: The octanol-buffer drug distribution coefficient at room temperature was determined by a small-scale, shake-flask method described by Dittert L W, et al. Phase Solubility Technique in Studying the Formation of Complex Salts of Triamterene. Journal of pharmaceutical sciences. […] Briefly, phosphate-buffered saline (PBS) at pH 3, 5, and 7.4 was used as the aqueous phase. […] The mixture was centrifuged at 14,000 rpm (18,078 g) (Beckman Coulter™ Microfuge® 18 centrifuge, Beckman Coulter Inc., Brea, Calif.) to separate octanol and the aqueous phase. The drug concentration in the two phases was determined with high-performance liquid chromatography tandem mass spectrometry (HPLC/MS/MS). The distribution coefficient was calculated as the ratio of the drug concentration in the octanol phase to the drug concentration in the aqueous phase. Triplicate samples were used at each pH.
# [8] = Drug incorporation efficiency into lipid-drug nanoparticles (dialysis); format: physicochemical; details: for Incorporation efficiency (%) / Drug incorporation (% total): preclinical 45 mL scale
# Method: J Acquir Immune Defic Syndr. […] Journal of pharmaceutical sciences. […] The AAPS journal. […] Residual solvent was removed overnight by vacuum desiccation. The dried lipid-drug film was then rehydrated with 0.9% NaCl containing 20 mM sodium bicarbonate (pH 7.4). The lipid-drug samples were allowed to hydrate at 60° C. for 2 h. Then samples were sonicated (laboratory scale) or homogenized (preclinical scale) to achieve a homogenous suspension.
# The incorporation efficiency was calculated as the ratio of the amount of incorporated drug over the total amount of drug loaded multiplied by 100%.
# [9] = Plasma drug exposure of three multi-drug lipid formulations vs free drug in primates; details: monkey, in vivo, sc, AUC Lipid Drug 0-168 h, LPV/EFV/TFV combination
# [10] = reported values; cited from earlier work
SMILES,"% Drug Association to Particles, LNPs from mixture of dual solvent method [1]","% Drug Association to Particles, LNPs from single, miscible solvent method [1]",Water solubility @ 25° C. [3],Hydrophobicity (Log P) [4],LogP [4],"% Drug Association to Particles, Liposomes [10]",further results
"COC(=O)N[C@H](C(=O)N[C@@H](Cc1ccccc1)[C@@H](O)CN(Cc1ccc(-c2ccccn2)cc1)NC(=O)[C@@H](NC(=O)OC)C(C)(C)C)C(C)(C)C [Atazanavir (ATV), Atazanavir]",90-100%,90-100%,0.11 µg/mL,5.6,–,–,"% particle-bound ([2]; Combination 2, lipid:ATZ:RTV:TFV 115:10:5:15, large scale): (91.9 ± 6.8) %; AUC fraction (% total) 8-168 h [5]: 95.3%; Particle size (nm) ([6]; lipid:drug 5:1 mol/mol): 68.2 ± 7.1 nm; Particle size (nm) ([6]; lipid:drug 8:1 mol/mol): 56.3 ± 4.1 nm; Particle size (nm) ([6]; lipid:drug 20:1 mol/mol): 34.6 ± 3.1 nm; Log D (measured) ([7]; pH 3, octanol/PBS): 3.40 ± 0.31; Log D (measured) ([7]; pH 5, octanol/PBS): 4.66 ± 0.27; Log D (measured) ([7]; pH 7.4, octanol/PBS): 5.77 ± 0.03; Incorporation efficiency (%) ([8]; LNPs with ATV + RTV + TFV (2:1:3), laboratory 0.2 mL scale): 104.2 ± 3.2%; Incorporation efficiency (%) / Drug incorporation (% total) ([8]; LNPs with ATV + RTV + TFV (2:1:3)): 85.5 ± 8.2%; Incorporation efficiency (%) / Drug incorporation (% total) ([8]; LNPs with ATV + RTV + TFV (2:1:3), listed as atazanavir): 85.5±8.2%; Incorporation efficiency (%) ([8]; LNPs with ATV + RTV, laboratory scale, lipid:drug 8:1): 93.5 ± 6.6%; Incorporation efficiency (%) ([8]; LNPs with ATV, laboratory scale, lipid:drug 8:1): 100.5 ± 8.2%; Incorporation efficiency (%) ([8]; lipid:drug 5:1 mol/mol, DSPC:DSPE-mPEG2000 8:2): 96.5 ± 2.6%; Incorporation efficiency (%) ([8]; lipid:drug 8:1 mol/mol, DSPC:DSPE-mPEG2000 8:2): 96.2 ± 3.8%; Incorporation efficiency (%) ([8]; lipid:drug 20:1 mol/mol, DSPC:DSPE-mPEG2000 8:2): 97.4 ± 1.8%"
C[C@@H]1CCO[C@H]2Cn3cc(C(=O)NCc4ccc(F)cc4F)c(=O)c(O)c3C(=O)N12 [Dolutegravir],–,–,95 µg/mL,–,2.4,–,–
O=C1Nc2ccc(Cl)cc2[C@@](C#CC2CC2)(C(F)(F)F)O1 [Efavirenz],76%,80-90%,0.000093 µg/mL,4,4,80%,"% particle-bound ([2]; Combination 3, lipid:LPV:EFV:TFV 200:26.6:20:40, large scale): (78.7) %; AUC [9]: 31200 ± 2700 ng·h/mL"
Nc1nc(=O)n([C@@H]2CS[C@H](CO)O2)cc1F [Emtricitabine],3-10%,78-80%,112000 µg/mL,−1.4,−2.4,1-2%,–
CC(C)(C)NC(=O)[C@@H]1CN(Cc2cccnc2)CCN1C[C@@H](O)C[C@@H](Cc1ccccc1)C(=O)N[C@H]1c2ccccc2C[C@H]1O [Indinavir],–,–,–,–,2.3,–,–
Nc1ccn([C@@H]2CS[C@H](CO)O2)c(=O)n1 [Lamivudine],10-30%,85%,–,–,–,4-5%,–
Cc1nnc(C(=O)NC(C)(C)c2nc(C(=O)NCc3ccc(F)cc3)c(O)c(=O)n2C)o1 [Raltegravir],9-25%,75-89%,100 µg/mL,–,−0.39,–,–
Cc1cc(/C=C/C#N)cc(C)c1Nc1ccnc(Nc2ccc(C#N)cc2)n1 [Rilpivirine],75-76%,90-100%,0.094 µg/mL,4.5,–,14%,–
